Experimental findings from US12679878B2, “CRF2 receptor agonists and their use in therapy” (SANOFI, priority 2020, dated 2026) are described below.

What all share (assay type): cell-based
One test has as its system rat CRF2R α receptor. Description: cAMP agonism at rat CRF2R α receptor in A7R5 rat aortic smooth muscle cells (Example 8). The settings on record: cAMP HTRF, A7R5 rat aortic smooth muscle cell line, 0% HSA. A digest of the protocol: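 Thawed cryopreserved A7R5 cells in HBSS/20 mM HEPES (0 or 0.1% HSA) with 2 mM IBMX, 2000 cells/well, were exposed to compound for 30 min at room temperature. cAMP was read by HTRF (665/620 nm ratio) after 1 h with lysis reagents. Activity was normalised to 1000 nM urocortin 2 as 100%, and EC50 was taken as the concentration giving 50% of maximal activation.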

Another test deals with T1, CRF1R receptor (Homo sapiens, UniProt P34998).
T1 construct: host or cells: CHO-K1 clone 2
T1 sequence (P34998 24-415): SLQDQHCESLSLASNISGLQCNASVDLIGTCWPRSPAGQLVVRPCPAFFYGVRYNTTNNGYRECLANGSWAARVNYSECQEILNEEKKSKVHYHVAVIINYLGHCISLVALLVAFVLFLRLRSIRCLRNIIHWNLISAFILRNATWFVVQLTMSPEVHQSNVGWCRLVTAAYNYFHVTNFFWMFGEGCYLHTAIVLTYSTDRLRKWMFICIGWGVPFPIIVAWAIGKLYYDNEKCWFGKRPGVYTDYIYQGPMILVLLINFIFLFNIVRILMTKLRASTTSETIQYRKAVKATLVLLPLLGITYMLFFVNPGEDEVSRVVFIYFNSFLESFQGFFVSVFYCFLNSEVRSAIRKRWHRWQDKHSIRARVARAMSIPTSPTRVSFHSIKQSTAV
Put plainly: cAMP activity at anti-target CRF1R, CRF1R-overexpression CHO cell line (Example 9). Particulars: CRF1R-overexpression CHO cell line; for EC50: 0% HSA; for Emax: read-out: Emax (%). Put shortly: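 cAMP accumulation was read by HTRF after 30 min at room temperature of compound treatment. Cells were cryopreserved CHO cells overexpressing CRF1R, plated at 2000/well in IBMX (2 mM)-containing HBSS/HEPES buffer with 0 or 0.1% HSA. Activity was normalized to 1000 nM UCN2 as 100%.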

The target in the next test is T2, human CRF2α receptor (Homo sapiens, UniProt Q13324).
T2 construct: expressed in transfected cells; host or cells: TeloHEAC
T2 sequence (Q13324 1-411): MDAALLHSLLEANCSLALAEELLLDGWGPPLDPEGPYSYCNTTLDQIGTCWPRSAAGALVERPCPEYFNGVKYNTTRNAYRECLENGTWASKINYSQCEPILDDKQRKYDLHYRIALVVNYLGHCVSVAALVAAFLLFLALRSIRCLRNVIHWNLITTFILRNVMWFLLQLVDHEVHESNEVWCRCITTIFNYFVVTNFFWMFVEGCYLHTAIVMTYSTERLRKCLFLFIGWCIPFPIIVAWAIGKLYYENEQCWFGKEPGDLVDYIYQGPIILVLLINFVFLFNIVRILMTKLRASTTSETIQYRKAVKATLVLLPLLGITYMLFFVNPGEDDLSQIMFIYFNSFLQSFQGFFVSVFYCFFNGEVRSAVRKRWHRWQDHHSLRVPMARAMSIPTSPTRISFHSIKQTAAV
Put plainly: cAMP agonism at human CRF2 α receptor in TeloHEAC cells (Example 7). The settings on record: cAMP HTRF, TeloHEAC cells stably expressing human CRF2 α. A digest of the protocol: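 HTRF ratio 665/620 nm, read 1 h after lysis reagents, reports cAMP. Cells: thawed stocks, 2000/well, 30 min RT with compound in HBSS, 20 mM HEPES, 0 or 0.1% HSA, 2 mM IBMX. Activity normalised to UCN2 1000 nM = 100%; EC50 from half-maximal activation.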
(Time-resolved FRET reads energy transfer from a long-lived donor to a nearby acceptor.)

Where [1] appears, read: 0% HSA, read-out: EC50 [nM], 0% HSA.
The mark [2] stands for this setting: 0.1% HSA, read-out: EC50 [nM], 0.1% HSA.

Where two headings read alike, the source gives them in different places. Starred links: 1 amine or outer side, 2 acyl side, 3 side chain; linkers in the order of their positions; H or OH if unused. Non-standard residues stand in square brackets, D forms with d. Residues, ends and D or L forms follow the SMILES beside them. Groups on a side chain read outwards from the residue. *: point of attachment. C18 diacid = O=C(O)CCCCCCCCCCCCCCCCC(=O)*; γGlu = O=C(O)[C@H](CCC(=O)[*:2])N[*:1]; AEEA = NCCOCCOCC(=O)O; Aib = CC(C)(N)C(=O)O

By EC50 is commonly meant the concentration giving half of the maximal effect. The Emax is the size of the effect at its maximum, as opposed to the concentration needed. For the molecule `CC[C@H](C)[C@H](N)C(=O)N[C@H](C(=O)N[C@@H](CC(C)C)C(=O)N[C@@H](CO)C(=O)N[C@@H](CC(C)C)C(=O)N[C@@H](CC(=O)O)C(=O)N[C@H](C(=O)N1CCC[C@H]1C(=O)N[C@H](C(=O)N[C@@H](CCCCN)C(=O)N[C@@H](CC(C)C)C(=O)N[C@@H](CCCCNC(=O)COCCOCCNC(=O)COCCOCCNC(=O)CC[C@H](NC(=O)CCCCCCCCCCCCCCCCC(=O)O)C(=O)O)C(=O)N[C@@H](CCCCN)C(=O)N[C@H](C(=O)N[C@@H](CC(C)C)C(=O)N[C@@H](CC(C)C)C(=O)N[C@@H](CCCCN)C(=O)N[C@@H](CCC(N)=O)C(=O)N[C@@H](CCC(=O)O)C(=O)N[C@@H](CCCNC(=N)N)C(=O)N[C@@H](CCC(N)=O)C(=O)N[C@@H](CCCCN)C(=O)N[C@@H](CCCCN)C(=O)NC(C)(C)C(=O)N[C@@H](CCCNC(=N)N)C(=O)N[C@@H](CCC(=O)O)C(=O)N[C@@H](CCC(N)=O)C(=O)N[C@@H](C)C(=O)N[C@@H](CCC(=O)O)C(=O)N[C@H](C(=O)N[C@@H](CC(N)=O)C(=O)NC(C)(C)C(=O)N[C@@H](CCC(N)=O)C(=O)N[C@H](C(=O)N[C@@H](CC(C)C)C(=O)N[C@@H](C)C(=O)N[C@@H](CCC(N)=O)C(=O)N[C@H](C(N)=O)C(C)C)[C@@H](C)CC)[C@@H](C)O)[C@@H](C)CC)[C@@H](C)CC)C(C)C)C(C)C` [compound 100] (H-IVLSLDVPIKLK([AEEA-AEEA-γGlu-C18 diacid])KILLKQERQKK[Aib]REQAETN[Aib]QILAQV-NH2; N-terminus assumed), the EC50 is 7.52 nM with rat CRF2R α receptor, greater than 1000 nM at CRF1R receptor, 0.51 nM on human CRF2α receptor (setting [1]) and 20.5 nM on human CRF2α receptor (setting [2]). Also, the Emax on CRF1R receptor amounted to 5.06%.

For `CC[C@H](C)[C@H](N)C(=O)N[C@H](C(=O)N[C@@H](CC(C)C)C(=O)N[C@@H](CO)C(=O)N[C@@H](CC(C)C)C(=O)N[C@@H](CC(=O)O)C(=O)N[C@H](C(=O)N1CCC[C@H]1C(=O)N[C@H](C(=O)N[C@@H](CCCCN)C(=O)N[C@@H](CC(C)C)C(=O)N[C@@H](CCCCNC(=O)COCCOCCNC(=O)COCCOCCNC(=O)CC[C@H](NC(=O)CCCCCCCCCCCCCCCCC(=O)O)C(=O)O)C(=O)N[C@@H](CCCCN)C(=O)N[C@H](C(=O)N[C@@H](CC(C)C)C(=O)N[C@@H](CC(C)C)C(=O)N[C@@H](CCCCN)C(=O)N[C@@H](CCC(N)=O)C(=O)N[C@@H](CCC(=O)O)C(=O)N[C@@H](CCCNC(=N)N)C(=O)N[C@@H](CCC(N)=O)C(=O)N[C@@H](CCCCN)C(=O)N[C@@H](CCCCN)C(=O)NC(C)(C)C(=O)N[C@@H](CCCNC(=N)N)C(=O)N[C@@H](CCC(=O)O)C(=O)N[C@@H](CCC(N)=O)C(=O)N[C@@H](C)C(=O)N[C@@H](CCC(=O)O)C(=O)N[C@H](C(=O)N[C@@H](CC(N)=O)C(=O)N[C@@H](CCCCN)C(=O)N[C@@H](CCC(N)=O)C(=O)N[C@H](C(=O)N[C@@H](CC(C)C)C(=O)N[C@@H](CCC(=O)O)C(=O)N[C@@H](CCCNC(=N)N)C(=O)N[C@H](C(N)=O)C(C)C)[C@@H](C)CC)[C@@H](C)O)[C@@H](C)CC)[C@@H](C)CC)C(C)C)C(C)C` [compound 101] (H-IVLSLDVPIKLK([AEEA-AEEA-γGlu-C18 diacid])KILLKQERQKK[Aib]REQAETNKQILERV-NH2; N-terminus assumed), the EC50 in the test with rat CRF2R α receptor was 1.02 nM; on CRF1R receptor it was greater than 1000 nM; on human CRF2α receptor (setting [1]), 0.11 nM; on human CRF2α receptor (setting [2]), 4.28 nM. For the same molecule, the Emax on CRF1R receptor is -0.34%.

As to `CC[C@H](C)[C@H](N)C(=O)N[C@H](C(=O)N[C@@H](CC(C)C)C(=O)N[C@@H](CO)C(=O)N[C@@H](CC(C)C)C(=O)N[C@@H](CC(=O)O)C(=O)N[C@@H](C(=O)N1CCC[C@H]1C(=O)N[C@H](C(=O)NCC(=O)N[C@@H](CC(C)C)C(=O)N[C@@H](CCCCNC(=O)COCCOCCNC(=O)COCCOCCNC(=O)CC[C@H](NC(=O)CCCCCCCCCCCCCCCCC(=O)O)C(=O)O)C(=O)N[C@@H](CCC(N)=O)C(=O)N[C@H](C(=O)N[C@@H](CC(C)C)C(=O)N[C@@H](CC(C)C)C(=O)N[C@@H](CCCCN)C(=O)N[C@@H](CCC(N)=O)C(=O)N[C@@H](CCC(=O)O)C(=O)N[C@@H](CCCNC(=N)N)C(=O)N[C@@H](CCC(N)=O)C(=O)N[C@@H](CCCCN)C(=O)N[C@@H](CCCCN)C(=O)NC(C)(C)C(=O)N[C@@H](CCCNC(=N)N)C(=O)N[C@@H](CCC(=O)O)C(=O)N[C@@H](CCC(N)=O)C(=O)N[C@@H](C)C(=O)N[C@@H](CCC(=O)O)C(=O)N[C@H](C(=O)N[C@@H](CC(N)=O)C(=O)N[C@@H](CCCCN)C(=O)N[C@@H](CCC(N)=O)C(=O)N[C@H](C(=O)N[C@@H](CC(C)C)C(=O)N[C@@H](C)C(=O)N[C@@H](CCC(N)=O)C(=O)N[C@H](C(N)=O)C(C)C)[C@@H](C)CC)[C@@H](C)O)[C@@H](C)CC)[C@@H](C)CC)C(C)C)C(C)C` [compound 147] (H-IVLSLD[dV]PIGLK([AEEA-AEEA-γGlu-C18 diacid])QILLKQERQKK[Aib]REQAETNKQILAQV-NH2; N-terminus assumed), the EC50 in the test on rat CRF2R α receptor is 2.53 nM; on CRF1R receptor, greater than 1000 nM; on human CRF2α receptor (setting [1]) it was 0.18 nM; at human CRF2α receptor (setting [2]), 8.17 nM. In addition, at CRF1R receptor, the Emax was found to be 4.54%.

With `CC[C@H](C)[C@H](N)C(=O)N[C@H](C(=O)N[C@@H](CC(C)C)C(=O)N[C@@H](CO)C(=O)N[C@@H](CC(C)C)C(=O)N[C@@H](CC(=O)O)C(=O)N[C@@H](C(=O)N1CCC[C@H]1C(=O)N[C@H](C(=O)NCC(=O)N[C@@H](CC(C)C)C(=O)N[C@@H](CCCCNC(=O)COCCOCCNC(=O)COCCOCCNC(=O)CC[C@H](NC(=O)CCCCCCCCCCCCCCCCC(=O)O)C(=O)O)C(=O)N[C@@H](CCC(N)=O)C(=O)N[C@H](C(=O)N[C@@H](CC(C)C)C(=O)N[C@@H](CC(C)C)C(=O)N[C@@H](CCCCN)C(=O)N[C@@H](CCC(N)=O)C(=O)N[C@@H](CCC(=O)O)C(=O)N[C@@H](CCCNC(=N)N)C(=O)N[C@@H](CCC(N)=O)C(=O)N[C@@H](CCCCN)C(=O)N[C@@H](CCCCN)C(=O)NC(C)(C)C(=O)N[C@@H](CCCNC(=N)N)C(=O)N[C@@H](CCC(=O)O)C(=O)N[C@@H](CCC(N)=O)C(=O)N[C@@H](C)C(=O)N[C@@H](CCC(=O)O)C(=O)N[C@@H](CCCCN)C(=O)N[C@@H](CC(N)=O)C(=O)N[C@@H](CCCCN)C(=O)N[C@@H](CCCNC(=N)N)C(=O)N[C@H](C(=O)N[C@@H](CC(C)C)C(=O)N[C@@H](CCC(=O)O)C(=O)N[C@@H](CCCNC(=N)N)C(=O)N[C@H](C(N)=O)C(C)C)[C@@H](C)CC)[C@@H](C)CC)[C@@H](C)CC)C(C)C)C(C)C` [compound 151] (H-IVLSLD[dV]PIGLK([AEEA-AEEA-γGlu-C18 diacid])QILLKQERQKK[Aib]REQAEKNKRILERV-NH2; N-terminus assumed), the EC50 in the test with rat CRF2R α receptor is 0.49 nM; at CRF1R receptor it was greater than 1000 nM; on human CRF2α receptor (setting [1]) it was 0.08 nM; on human CRF2α receptor (setting [2]) it was 3.87 nM. In addition, the Emax on CRF1R receptor turned out to be 9.07%.
